Experimental data from ChEMBL document CHEMBL1136155, “Search compounds with antimicrobial activity by applying molecular topology to selected quinolones” (Bioorg Med Chem Lett, 2003).
Calls of active or inactive are those of the source. The rule behind the calls is not given here.

Legend:
[1] = tested on: Enterococcus faecalis; test: Antimicrobial activity against Enterococcus faecalis;IA is Inactive; type: functional, organism-based
[2] = tested on: Pseudomonas aeruginosa; test: Antimicrobial activity against Pseudomonas aeruginosa 108;IA is Inactive; type: functional, organism-based
[3] = tested on: Proteus mirabilis; test: Antimicrobial activity against Proteus mirabilis;IA is Inactive; type: functional, organism-based
[4] = tested on: Staphylococcus aureus; test: Antimicrobial activity against Staphylococcus aureus;IA is Inactive; type: functional, organism-based
[5] = tested on: Escherichia coli; test: Antimicrobial activity against Escherichia coli;IA is Inactive; type: functional, organism-based
[6] = tested on: Klebsiella aerogenes; test: Activity against Enterobacter aerogenes; type: functional
[7] = in vivo; conditions: eutheria
[8] = tested on: Enterococcus faecalis; test: The compound has antimicrobial activity against Enterococcus faecalis; Active; type: functional, organism-based
[9] = tested on: Proteus mirabilis; test: The compound has antimicrobial activity against Proteus mirabilis; Active; type: functional, organism-based
[10] = tested on: Staphylococcus aureus; test: The compound has antimicrobial activity against Staphylococcus aureus; Active; type: functional, organism-based

## Nc1ccc(C(=O)Nc2ccc3c(O)c(/N=N/c4ccc(C(=O)Nc5ccc(/N=N/c6ccc7cc(S(=O)(=O)O)cc(S(=O)(=O)O)c7c6)c(O)c5)cc4)c(S(=O)(=O)O)cc3c2)cc1
[1]
  Activity: inactive
[2]
  Activity: inactive
[3]
  Activity: inactive
[4]
  Activity: inactive
[5]
  Activity: inactive

## CCn1cc(C(=O)O)c(=O)c2cc(F)c(N3CCNCC3)cc21 [NORFLOXACIN]
[6]
  CMI: 0.1 mg/L
[7]
  bioavailability: 63%

## CCn1cc(C(=O)O)c(=O)c2cnc(N3CCNCC3)nc21 [PIPEMIDIC ACID]
[6]
  CMI: 2 mg/L

## CCn1cc(C(=O)O)c(=O)c2ccc(C)nc21 [NALIDIXIC ACID]
[8]
  Activity: Active
[6]
  CMI: 3 mg/L
[2]
  Activity: inactive
[9]
  Activity: Active
[10]
  Activity: Active
[5]
  Activity: inactive
[7]
  bioavailability: 60%

## CN1CCN(c2cc3c(cc2F)c(=O)c(C(=O)O)cn3-c2ccc(F)cc2)CC1 [DIFLOXACIN]
[6]
  CMI: 0.19 mg/L

## CC1COc2c(N3CCN(C)CC3)c(F)cc3c(=O)c(C(=O)O)cn1c23 (stereo not given) [OFLOXACIN]
[6]
  CMI: 0.12 mg/L
[7]
  bioavailability: 94.4%

## CCn1cc(C(=O)O)c(=O)c2cc(F)c(N3CCNC(C)C3)c(F)c21 (stereo not given) [LOMEFLOXACIN]
[6]
  CMI: 0.16 mg/L
[7]
  bioavailability: 98%

## O=C(O)c1cn(C2CC2)c2cc(N3CCNCC3)c(F)cc2c1=O [CIPROFLOXACIN]
[6]
  CMI: 0.03 mg/L

## CCn1cc(C(=O)O)c(=O)c2cc(F)c(N3CCNCC3)nc21 [ENOXACIN]
[6]
  CMI: 0.16 mg/L
[7]
  bioavailability: 87.4%

## OCC(O)C(OC1CO1)OC1CO1 (stereo not given)
[1]
  Activity: inactive
[2]
  Activity: inactive
[3]
  Activity: inactive
[4]
  Activity: inactive
[5]
  Activity: inactive

## CNn1cc(C(=O)O)c(=O)c2cc(F)c(N3CCN(C)CC3)cc21 [AMIFLOXACIN]
[6]
  CMI: 0.11 mg/L

## CCn1cc(C(=O)O)c(=O)c2cc(F)c(N3CCN(C)CC3)cc21 [PEFLOXACIN]
[6]
  CMI: 0.12 mg/L
[7]
  bioavailability: 91.2%

## CC1CN(c2cc3c(cc2F)c(=O)c(C(=O)O)cn3-c2ccc(F)cc2F)CCN1 (stereo not given) [TEMAFLOXACIN]
[6]
  CMI: 0.16 mg/L
[7]
  bioavailability: 90%

## CC1=CC(=C(c2cc(C)c(O)c(CN(CC(=O)O)CC(=O)O)c2)c2ccccc2S(=O)(=O)O)C=C(CN(CC(=O)O)CC(=O)O)C1=O
[1]
  Activity: inactive
[2]
  Activity: inactive
[9]
  Activity: Active
[4]
  Activity: inactive
[5]
  Activity: inactive

## NC1CCN(c2nc3c(cc2F)c(=O)c(C(=O)O)cn3-c2ccccc2F)C1 (stereo not given) [TUSOFLOXACINE]
[6]
  CMI: 0.05 mg/L

## CCn1cc(C(=O)O)c(=O)c2cc3c(cc21)OCO3 [OXOLINIC ACID]
[6]
  CMI: 0.5 mg/L
